pEC50, pIC50: −log10 of the molar value.
Columns and labels:
Wee-1 kinase = biological target: T1, Wee-1 kinase (Homo sapiens, UniProt P30291); test: Measurement of Wee-1 kinase activity (ADP-Glo luminescent kit); type: biochemical
T1 construct: purchased Invitrogen PV3817
Procedure, shortened: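 ADP-Glo luminescence reads ADP made over 1 h at RT, after an aliquot of 30 μM ATP and 2.0 μg/mL poly(Lys,Tyr 4:1) substrate. Before that, the kinase sat 30 min with inhibitor in Tris-HCl/MgCl2 buffer with BSA and DTT. IC50 came from regression of percent inhibition.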

[1] = tested on: phospho-cdc2 (Tyr15) in HT-29 cells; test: Effect on Cdc2 phosphorylation at Tyr15, Cell-Based ELISA Base Kit (Method 3); settings: Homo sapiens, HT-29, 8 h, eight hours incubation, normalized to total cdc2, read-out: HT29 pCDC2 method 3
Procedure: Method 3: Determining the Effect of Compounds on the Cdc2 phosphorylation at Tyr15, using a Cell-Based ELISA Base Kit (R&D Systems, KCB001)
The colorectal cancer cell line, HT-29 was purchased from the ATCC and maintained in McCoy's 5 A medium (Gibco®, Life technologies) supplemented with 10% Foetal Calf Serum (FCS).
The cells were trypsinised and counted, 100 μL of 8000 cells was seeded into each well of a clear-bottom black 96-well microplate and incubated overnight to allow adherence to the surface, at 37° C. and 5% CO2 in a cell culture incubator.
Test compounds were formulated in DMSO and diluted in cell culture medium supplemented with FCS. Grow medium was removed from cells and medium containing compounds dilutions was added to each well. The plate was returned to the incubator for an additional eight hours of incubation at 37° C. and 5% CO2.
Post incubation cells were fixed by replacing the compounds supplemented medium with 100 μL of 4% formaldehyde in 1× phosphate buffered saline (PBS), for 20 minutes at room temperature. Formaldehyde solution was removed and cells were washed three times with PBS. The Cell-Based ELISA assay (R&D Systems) was carried out immediately after cell fixation or the plate was sealed and fixed cells were stored in PBS at 4° C. until required (no more than two weeks).
To continue the assay, PBS was removed and cells were washed 3 times for 5 minutes with 200 μL of 1× wash buffer. Each wash step was carried out with gentle shaking. Following washes, 100 μL of 0.6% H2O2 in 1× wash buffer (quenching buffer) was added, plate was sealed and incubated for 20 minutes at room temperature. Post incubation cells were washes 3 times for 5 minutes with 200 μL of 1× wash buffer, with gentle shaking. 100 μL of blocking buffer was added to each well, the plate was re-sealed and incubated at room temperature for 1 h.
After blocking, cells were washed as described above. A primary antibody mixture was prepared by mixing the two primary antibodies, a rabbit monoclonal antibody for phospho-cdc2 (Tyr15) (Cell Signaling, #4539) and mouse monoclonal antibody for total cdc2 p34 (Santa Cruz Biotechnology, sc-54), diluted 1:25 and 1:50 in blocking buffer, respectively. 60 μL of primary antibody mixture was added to each well, the plate was sealed and incubated overnight at 4° C.
The primary antibodies were removed and cells were washed as previously described. 100 μL of secondary antibody mixture, containing horseradish-peroxidase (HRP)-conjugated goat anti-rabbit IgG and alkaline phosphatase (AP)-conjugated goat anti-mouse IgG, diluted 1:100 in blocking buffer, was added to each test well. The plate was re-sealed and incubated for 2 hours at room temperature.
The secondary antibodies were removed and cells washed 2 times with wash buffer, followed by 2 washes with PBS. Each wash step was carried out for 5 minutes with gentle shaking. PBS was removed and 75 μL of fluorogenic substrate for HRP (substrate F1) added to each well. The plate was sealed and incubated for 1 h at room temperature, in the dark. 75 μL of fluorogenic substrate for AP (substrate F2) was added directly to each well, plate re-sealed and incubated for additional 40 minutes at room temperature, protected from direct light.
Following incubation fluorescence from each well was read at 600 nm (signal from substrate 1, phosphorylated protein) and then at 450 nm (signal from substrate 2, total protein).
The percentage of phospho-cdc2 was calculated compared to DMSO control, normalized to the total cdc2 and plotted versus the concentration of inhibitor, using GraphPad Prism. Data was fitted using a non-linear regression analysis and EC50 values generated.

[2] = CLint estimates using human liver microsomes (Method 4); type: in vitro ADME; settings: pH 7.4, 1 μM compound, read-out: Mics - CLint (HLM CLint)
Procedure, shortened: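 Depletion measured by LC/MS/MS in MRM mode over 2–50 min after starting reactions with 1 mM NADPH. Incubations used 0.5 mg/mL human liver microsomal protein, 1 μM compound, 0.1% DMSO, pH 7.4 phosphate buffer, 37 °C. ln peak area plotted against time; the gradient gave t½ and intrinsic clearance.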

T1 sequence (P30291 whole entry): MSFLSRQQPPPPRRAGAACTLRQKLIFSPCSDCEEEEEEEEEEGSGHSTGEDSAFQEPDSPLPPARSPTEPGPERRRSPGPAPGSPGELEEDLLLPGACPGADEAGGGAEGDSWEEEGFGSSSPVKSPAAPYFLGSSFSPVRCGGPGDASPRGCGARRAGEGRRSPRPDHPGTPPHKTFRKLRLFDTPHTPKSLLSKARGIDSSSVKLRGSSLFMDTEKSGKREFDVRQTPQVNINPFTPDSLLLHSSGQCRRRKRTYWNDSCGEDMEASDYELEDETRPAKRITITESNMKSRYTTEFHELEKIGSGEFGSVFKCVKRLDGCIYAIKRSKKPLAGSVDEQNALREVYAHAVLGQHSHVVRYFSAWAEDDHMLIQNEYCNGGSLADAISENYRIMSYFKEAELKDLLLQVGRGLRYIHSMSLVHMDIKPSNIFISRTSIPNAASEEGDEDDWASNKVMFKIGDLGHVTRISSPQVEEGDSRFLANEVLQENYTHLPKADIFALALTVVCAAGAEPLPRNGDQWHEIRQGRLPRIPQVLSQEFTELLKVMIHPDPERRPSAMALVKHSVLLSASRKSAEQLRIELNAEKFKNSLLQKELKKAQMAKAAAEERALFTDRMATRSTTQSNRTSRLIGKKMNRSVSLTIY

Row | pIC50 (Wee-1 kinase) | microsomal CLint at 1 μM [2] [µL/min/mg] | SMILES | pEC50 [1]
1 | ≥ 8.00 | 15 to 50 | CN1CN(c2c(Cl)cccc2Cl)C(=O)c2cnc(Nc3ccc(N4CCN(C)C(C)(C)C4)cc3)nc21 [Example 63, 3-(2,6-dichlorophenyl)-1-methyl-7-((4-(3,3,4-trimethylpiperazin-1-yl)phenyl)amino)-2,3-dihydropyrimido[4,5-d]pyrimidin-4(1H)-one] | 6.00 to 7.00
2 | ≥ 8.00 | 15 to 50 | CN(C)CC(=O)N1CCN(c2ccc(Nc3ncc4c(n3)N(C)CN(c3c(Cl)cccc3Cl)C4=O)cc2CO)CC1 [Example 161, 3-(2,6-dichlorophenyl)-7-((4-(4-(2-(dimethylamino)acetyl)piperazin-1-yl)-3-(hydroxymethyl)phenyl)amino)-1-methyl-2,3-dihydropyrimido[4,5-d]pyrimidin-4(1H)-one] | 6.00 to 7.00
3 | ≥ 8.00 | ≤ 15 | CN(C)Cc1cc(Nc2ncc3c(n2)N(C)CN(c2c(Cl)cccc2Cl)C3=O)ccc1N1CCS(=O)(=O)CC1 [Example 149, 3-(2,6-dichlorophenyl)-7-((3-((dimethylamino)methyl)-4-(1,1-dioxidothiomorpholino)phenyl)amino)-1-methyl-2,3-dihydropyrimido[4,5-d]pyrimidin-4(1H)-one] | 6.00 to 7.00
4 | ≥ 8.00 | 15 to 50 | CN(C)Cc1cc(Nc2ncc3c(n2)N(C)CN(c2c(Cl)cccc2Cl)C3=O)ccc1N1CCOCC1 [Example 154, 3-(2,6-dichlorophenyl)-7-((3-((dimethylamino)methyl)-4-morpholinophenyl)amino)-1-methyl-2,3-dihydropyrimido[4,5-d]pyrimidin-4(1H)-one] | 6.00 to 7.00
5 | ≥ 8.00 | ≤ 15 | [2H]C([2H])([2H])N1CN(c2c(Cl)cccc2Cl)C(=O)c2cnc(Nc3ccc(N4CCN[C@H](C)C4)cc3)nc21 [Example 78, (R)-3-(2,6-dichlorophenyl)-1-d3-methyl-7-((4-(3-methylpiperazin-1-yl)phenyl)amino)-2,3-dihydropyrimido[4,5-d]pyrimidin-4(1H)-one] | 6.00 to 7.00
6 | ≥ 8.00 | ≤ 15 | Cc1cc(Nc2ncc3c(n2)N(C)CN(c2c(F)cccc2Cl)C3=O)ccc1N1CCNCC1 [Example 55, 3-(2-chloro-6-fluorophenyl)-1-methyl-7-((3-methyl-4-(piperazin-1-yl)phenyl)amino)-2,3-dihydropyrimido[4,5-d]pyrimidin-4(1H)-one] | 6.00 to 7.00
7 | 7.00 to 8.00 | ≤ 15 | COC[C@H]1CN(c2ccc(Nc3ncc4c(n3)N(C)CN(c3c(F)cccc3Cl)C4=O)cc2)CCN1 [Example 126, (R)-3-(2-chloro-6-fluorophenyl)-7-((4-(3-(methoxymethyl)piperazin-1-yl)phenyl)amino)-1-methyl-2,3-dihydropyrimido[4,5-d]pyrimidin-4(1H)-one] | ≤ 6.00

More lines, now with the values behind:

Row | SMILES | pIC50 (Wee-1 kinase) | microsomal CLint at 1 μM [2] [µL/min/mg] | pEC50 [1]
8 | CN1CCN(c2ccc(Nc3ncc4c(n3)N(C)CN(c3c(Cl)cccc3Cl)C4=O)cc2)CC1 [Example 117, 3-(2,6-dichlorophenyl)-1-methyl-7-((4-(4-methylpiperazin-1-yl)phenyl)amino)-2,3-dihydropyrimido[4,5-d]pyrimidin-4(1H)-one] | 7.00 to 8.00 | 15 to 50 | 6.00 to 7.00
9 | COC[C@@H]1CN(c2ccc(Nc3ncc4c(n3)N(C)CN(c3c(Cl)cccc3Cl)C4=O)cc2)CCN1 [Example 61, (S)-3-(2,6-dichlorophenyl)-7-((4-(3-(methoxymethyl)piperazin-1-yl)phenyl)amino)-1-methyl-2,3-dihydropyrimido[4,5-d]pyrimidin-4(1H)-one] | 7.00 to 8.00 | ≤ 15 | 6.00 to 7.00
10 | CCN1CN(c2c(Cl)cccc2Cl)C(=O)c2cnc(Nc3ccc(N4C[C@@H](C)N[C@@H](C)C4)c(CO)c3)nc21 [Example 170, 3-(2,6-dichlorophenyl)-7-((4-((3S,5R)-3,5-dimethylpiperazin-1-yl)-3-(hydroxymethyl)phenyl)amino)-1-ethyl-2,3-dihydropyrimido[4,5-d]pyrimidin-4(1H)-one] | ≥ 8.00 | 15 to 50 | 6.00 to 7.00
11 | CN(C)Cc1cc(Nc2ncc3c(n2)N(C)CN(c2c(Cl)cccc2Cl)C3=O)ccc1N1CCC(F)(F)CC1 [Example 150, 3-(2,6-dichlorophenyl)-7-((4-(4,4-difluoropiperidin-1-yl)-3-((dimethylamino)methyl)phenyl)amino)-1-methyl-2,3-dihydropyrimido[4,5-d]pyrimidin-4(1H)-one] | 7.00 to 8.00 | ≥ 50 | 6.00 to 7.00
12 | CNCc1cc(Nc2ncc3c(n2)N(C)CN(c2c(Cl)cccc2Cl)C3=O)ccc1N1CCS(=O)(=O)CC1 [Example 146, 3-(2,6-dichlorophenyl)-7-((4-(1,1-dioxidothiomorpholino)-3-((methylamino)methyl)phenyl)amino)-1-methyl-2,3-dihydropyrimido[4,5-d]pyrimidin-4(1H)-one] | ≥ 8.00 | ≤ 15 | ≤ 6.00
13 | C[C@@H]1CN(c2ccc(Nc3ncc4c(n3)N(C)CN(c3c(Cl)cccc3Cl)C4=O)cc2)C[C@H](C)N1 [Example 83, 3-(2,6-dichlorophenyl)-7-((4-((3R,5S)-3,5-dimethylpiperazin-1-yl)phenyl)amino)-1-methyl-2,3-dihydropyrimido[4,5-d]pyrimidin-4(1H)-one] | ≥ 8.00 | 15 to 50 | 6.00 to 7.00
14 | CNCc1cc(Nc2ncc3c(n2)N(C)CN(c2c(Cl)cccc2Cl)C3=O)ccc1N1CCCC1 [Example 137, 3-(2,6-dichlorophenyl)-1-methyl-7-((3-((methylamino)methyl)-4-(pyrrolidin-1-yl)phenyl)amino)-2,3-dihydropyrimido[4,5-d]pyrimidin-4(1H)-one] | 7.00 to 8.00 | ≥ 50 | 6.00 to 7.00
15 | CN1CN(c2c(Cl)cccc2Cl)C(=O)c2cnc(Nc3ccc(N4CC5CCC(C4)N5C)cc3)nc21 [Example 88, 3-(2,6-dichlorophenyl)-1-methyl-7-((4-(8-methyl-3,8-diazabicyclo[3.2.1]octan-3-yl)phenyl)amino)-2,3-dihydropyrimido[4,5-d]pyrimidin-4(1H)-one] | ≥ 8.00 | 15 to 50 | 6.00 to 7.00
16 | CNCC(=O)N1CCN(c2ccc(Nc3ncc4c(n3)N(C)CN(c3c(Cl)cccc3Cl)C4=O)cc2)CC1 [Example 124, 3-(2,6-dichlorophenyl)-1-methyl-7-((4-(4-(2-(methylamino)acetyl)piperazin-1-yl)phenyl)amino)-2,3-dihydropyrimido[4,5-d]pyrimidin-4(1H)-one] | ≥ 8.00 | ≤ 15 | 6.00 to 7.00
17 | CNCc1cccc(N2CN(c3c(Cl)cccc3Cl)C(=O)c3cnc(Nc4ccc(N5CCOCC5)cc4)nc32)c1 [Example 168, 3-(2,6-dichlorophenyl)-1-(3-((methylamino)methyl)phenyl)-7-((4-morpholinophenyl)amino)-2,3-dihydropyrimido[4,5-d]pyrimidin-4(1H)-one] | ≥ 8.00 | ≤ 15 | 6.00 to 7.00
